Assay: molar heat capacity at constant pressure; wn = mass fraction of the nth substance listed
Conditions: 101 kPa, Liquid, Small sample (50 mg) DSC

CCn1cc[n+](C)c1.N#C[C-](C#N)C#N [1-ethyl-3-methyl-1H-imidazolium tricyanomethanide] + CCn1cc[n+](C)c1.N#CN=C=[N-]
molar heat capacity at constant pressure [J/K/mol]
Conditions	w2 = 0	w2 = 0.25	w2 = 0.5	w2 = 0.75
296.2 K	357	354	344	335
300.2 K	360	355	346	338
304.2 K	362	356	347	339
308.2 K	364	357	348	340
312.2 K	366	358	350	342
316.2 K	367	359	352	343
320.2 K	369	360	352	344
324.2 K	370	361	354	345
328.2 K	372	363	356	347
332.2 K	374	365	358	349
336.2 K	377	367	360	352
340.2 K	379	370	362	354
344.2 K	382	372	365	356
348.2 K	384	374	367	359
352.2 K	387	377	370	362
356.2 K	390	381	373	365
360.2 K	393	383	376	368
364.2 K	396	385	380	371
368.2 K	399	388	383	374
372.2 K	403	391	387	378

Source: the NIST ThermoML archive (doi:10.1016/j.tca.2014.04.026)
